The results in this text go back to US20200055817A1 (AbbVie Deutschland GmbH & Co. KG, priority 2016, published 2020).

Type in all cases: cell-based
Assay [1] addresses T1, human EDG8 (S1PR5) receptor (Homo sapiens, UniProt Q9H228).
T1 construct: carries the transgenes human EDG8 (S1PR5) receptor (Acession number NP_110387.1); expressed in transfected cells; host or cells: CHO-A21-EDG8#12 (CHO clone co-expressing mitochondrial aequorin and chimaeric Gaqi5)
The assay can be described thus: Aequorin assay, agonist potency, CHO-A21-EDG8#12 cells. As to conditions: agonist mode, aequorin luminescence; read-out: S1P5 EC50 range #. The protocol: (§1) Agonistic activity was measured as described below.
(§2) Cell clone CHO-A21-Edg1#17 carries the transgenes human EDG1 (S1PR1) receptor (Accession number NP_001391.2), mitochondrially targeted Aequorin (active part corresponds to accession number 1SL8_A) and chimaeric Gaqi5=Gaq modified with the 5 C-terminal amino-acids replaced with those of the Gai protein (DCGLF). CHO-A2-S1P3 Mix is a cell pool ectopically expressing human EDG3 (S1PR3) receptor (Accession number NP_005217.2) mitochondrially targeted Aequorin (active part has a sequence similar to accession number AY601106.1) and GNA16 (Accession number NP_002059.3). Cell clone CHO-A21-EDG8#12 carries the transgenes human EDG8 (S1PR5) receptor (Acession number NP_110387.1), mitochondrially expressed Aequorin (active part corresponds to accession number 1SL8_A) and chimaeric Gaqi5 (Gaq modified to present the 5 last amino-acids of the Gai protein “DCGLF”; see above). Cells are grown to mid-log phase in culture medium (HAM's F12, 10% FBS, 100 IU/mL penicillin, 100 μg/mL streptomycin, 250 μg/mL Zeocin, 400 μg/mL G418). 18 hours prior to frozen cells preparation, the medium is changed to remove the antibiotics.
(§3) 18 hours prior to the test, vials of frozen cells are quickly thawed in a 37° C. water bath, cells are recovered by centrifugation and resuspended in assay buffer (DMEM/HAM's F12 with HEPES, without phenol red+0.1% fatty acid-free BSA). Cells are gently agitated in suspension overnight at RT in presence of 5 μM of Coelenterazine h (Molecular Probes). On the day of the test, cells are diluted to their final working concentrations in assay buffer and agitated in suspension for 1 h at RT. Cells are then placed in the luminescence reader (Hamamatsu Functional Drug Screening System 6000, FDSS6000). During cells incubation, compounds are prepared in 100% DMSO, and subsequently diluted in assay buffer. Compounds are then dispensed in the assay plate (black, clear-bottom, 384-well plate). After binding of agonists to the human S1P receptor the intracellular calcium concentration increases and binding of calcium to the Aequorin/Coelenterazine complex leads to an oxidation reaction of coelenterazine, which results in the production of Aequorin, coelenteramide, CO2 and light (Dmax 469 nm). The luminescent response is dependent on the agonist concentration. For agonist testing, 30 μL of cell suspension are injected on 30 μL of test compound or reference agonist in the assay plate. The resulting emission of light is recorded for 90 seconds using the FDSS6000. Dose response curves with the reference compounds are performed before testing the compounds. S1P is the reference agonist and JTE-013 the reference antagonist for S1P2.
(§4) Luminescence data are integrated over the reading interval for agonist and antagonist modes. To standardize the emission of recorded light (determination of the “100% signal”) across plates and across different experiments, some of the wells contain 100 μM digitonin or a saturating concentration of ATP (20 μM). Plates also contain the reference agonist at a concentration equivalent to the EC80 obtained during the test validation and the EC100. Dose-response data from test compounds were analyzed with XLfit (IDBS) software using nonlinear regression applied to a sigmoidal dose-response model and the following equation: […]

Another assay concerns the target T2, S1P4 (Homo sapiens, UniProt O95977).
T2 sequence (O95977 1-384): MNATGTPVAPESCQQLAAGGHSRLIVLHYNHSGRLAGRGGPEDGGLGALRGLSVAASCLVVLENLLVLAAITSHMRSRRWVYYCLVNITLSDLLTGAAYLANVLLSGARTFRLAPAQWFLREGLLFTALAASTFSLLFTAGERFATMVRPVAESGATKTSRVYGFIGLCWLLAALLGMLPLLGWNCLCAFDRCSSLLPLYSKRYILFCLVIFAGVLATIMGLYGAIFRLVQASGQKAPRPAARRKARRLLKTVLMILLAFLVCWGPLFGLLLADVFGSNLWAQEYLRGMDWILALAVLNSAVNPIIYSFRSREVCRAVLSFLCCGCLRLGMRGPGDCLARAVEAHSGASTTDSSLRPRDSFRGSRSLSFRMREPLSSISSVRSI
The assay is described as follows: Aequorin assay, agonist potency, S1P4. As to conditions: agonist mode, aequorin luminescence. Here is the method:
as §1, §3, §4

Assay [2] concerns the target T3, human EDG1 (S1PR1) receptor (Homo sapiens, UniProt P21453).
T3 construct: expressed in transfected cells; host or cells: CHO-A21-Edg1#17 (CHO clone co-expressing mitochondrial aequorin and chimaeric Gaqi5)
The assay can be described thus: Aequorin assay, agonist potency, CHO-A21-Edg1#17 cells. As to conditions: agonist mode, aequorin luminescence; read-out: S1P1 EC50. The protocol: as §1, §2, §3, §4

T1 sequence (Q9H228 whole entry): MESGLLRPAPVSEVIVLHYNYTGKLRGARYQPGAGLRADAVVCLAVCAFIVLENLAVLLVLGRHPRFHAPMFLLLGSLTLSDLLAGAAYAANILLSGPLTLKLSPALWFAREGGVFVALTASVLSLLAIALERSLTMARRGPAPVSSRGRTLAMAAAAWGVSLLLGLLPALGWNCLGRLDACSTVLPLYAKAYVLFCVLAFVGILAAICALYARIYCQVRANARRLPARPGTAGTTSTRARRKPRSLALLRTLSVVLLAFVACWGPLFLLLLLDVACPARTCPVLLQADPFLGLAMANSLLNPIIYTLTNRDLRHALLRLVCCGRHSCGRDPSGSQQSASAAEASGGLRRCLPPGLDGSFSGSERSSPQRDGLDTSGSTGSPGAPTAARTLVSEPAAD
T3 sequence (P21453 whole entry): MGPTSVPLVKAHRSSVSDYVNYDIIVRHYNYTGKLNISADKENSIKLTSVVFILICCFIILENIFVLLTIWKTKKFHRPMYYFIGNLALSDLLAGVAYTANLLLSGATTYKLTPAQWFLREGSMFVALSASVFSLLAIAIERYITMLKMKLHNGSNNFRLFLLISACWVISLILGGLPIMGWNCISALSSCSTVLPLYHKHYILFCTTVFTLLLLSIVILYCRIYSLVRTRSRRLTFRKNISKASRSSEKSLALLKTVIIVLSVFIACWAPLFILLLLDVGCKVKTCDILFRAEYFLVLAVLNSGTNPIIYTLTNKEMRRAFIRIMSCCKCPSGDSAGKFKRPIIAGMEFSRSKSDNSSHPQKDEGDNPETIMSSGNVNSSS

One may read the EC50 as the concentration needed to bring the measured effect to its halfway point. For `CCOc1cc(F)c(COc2ccc3c(c2)CC2(C3)CN(C3CC(C(=O)O)C3)C2)c(F)c1` (stereo not drawn) [Example 85, 3-(5′-((4-ethoxy-2,6-difluorobenzyl)oxy)-1′,3′-dihydrospiro[azetidine-3,2′-inden]-1-yl)cyclobutanecarboxylic acid], the results for the EC50 (in assay [1]; at S1P4; in assay [2]) were 1 to 10 µM, less than 1 µM and more than 1 µM, respectively.

Turning to `O=C(O)C1(CN2CC3(Cc4ccc(OCCc5ccccc5)cc4C3)C2)CC1` [Example 54, 1-((5′-phenethoxy-1′,3′-dihydrospiro[azetidine-3,2′-inden]-1-yl)methyl)cyclopropanecarboxylic acid], the EC50 in assay [1] is 1 to 10 µM; at S1P4 it was less than 1 µM; in assay [2], more than 1 µM.

With `O=C(O)CN1CC2(Cc3ccc(C#Cc4ccccc4)cc3C2)C1` [Example 82, 2-(5′-(phenylethynyl)-1′,3′-dihydrospiro[azetidine-3,2′-inden]-1-yl)acetic acid], the EC50 in assay [1] was 0.01 to 0.1 µM; on S1P4, less than 1 µM; in assay [2], more than 1 µM.

Regarding `COc1ccc(COc2ccc3c(c2)CC2(C3)CN(C3CC(C(=O)O)C3)C2)c(C)n1` (stereo not drawn) [Example 88, 3-(5′-((6-methoxy-2-methylpyridin-3-yl)methoxy)-1′,3′-dihydrospiro[azetidine-3,2′-inden]-1-yl)cyclobutanecarboxylic acid], the EC50 in assay [1] was 1 to 10 µM; at S1P4, less than 1 µM; in assay [2] it was more than 1 µM.

For the compound `CCc1cccc(Cl)c1COc1ccc2c(c1)OC1(C2)CN(CC(=O)O)C1` [Example 158, 2-(6′-((2-chloro-6-ethylbenzyl)oxy)-3′H-spiro[azetidine-3,2′-benzofuran]-1-yl)acetic acid], the EC50 in assay [1] is not above 0.01 µM; on S1P4, less than 1 µM; in assay [2], less than 1 µM.

As for `O=C(O)C1(CN2CC3(Cc4ccc(OCC5CCCCC5)cc4C3)C2)CC1` [Example 126, 1-((5′-(cyclohexylmethoxy)-1′,3′-dihydrospiro[azetidine-3,2′-inden]-1-yl)methyl)cyclopropanecarboxylic acid], the figures for the EC50 (in assay [1]; on S1P4; in assay [2]) were 0.1 to 1 µM, less than 1 µM and more than 1 µM, respectively.

With `COc1ccc(COc2ccc3c(c2)CC2(C3)CN(CC3(C(=O)O)CC3)C2)c(Cl)c1` [Example 40, 1-((5′-((2-chloro-4-methoxybenzyl)oxy)-1′,3′-dihydrospiro[azetidine-3,2′-inden]-1-yl)methyl)cyclopropanecarboxylic acid], the values for the EC50 (in assay [1]; on S1P4; in assay [2]) were 1 to 10 µM, less than 1 µM and more than 1 µM, respectively.

Consider `CCOc1ccc(C#Cc2ccc3c(c2)CC2(C3)CN(CC(=O)O)C2)cc1` [Example 77, 2-(5′-((4-ethoxyphenyl)ethynyl)-1′,3′-dihydrospiro[azetidine-3,2′-inden]-1-yl)acetic acid], for which the EC50 in assay [1] was not above 0.01 µM; on S1P4, less than 1 µM; in assay [2], less than 1 µM.

As to `O=C(O)CN1CC2(Cc3ccc(C#CC4CCCCC4)cc3O2)C1` [Example 150, 2-(6′-(cyclohexylethynyl)-3′H-spiro[azetidine-3,2′-benzofuran]-1-yl)acetic acid], the EC50 in assay [1] was not above 0.01 µM; on S1P4, less than 1 µM; in assay [2], more than 1 µM.

Consider `N#Cc1ccc(COc2ccc3c(c2)CC2(C3)CN(CC3(C(=O)O)CC3)C2)cc1` [Example 142, 1-((5′-((4-cyanobenzyl)oxy)-1′,3′-dihydrospiro[azetidine-3,2′-inden]-1-yl)methyl)cyclopropanecarboxylic acid], for which the EC50 in assay [1] was 1 to 10 µM; at S1P4 it was more than 1 µM; in assay [2], more than 1 µM.

Turning to `O=C(O)C1(CN2CC3(Cc4ccc(OCCc5ccc(Cl)cc5)cc4C3)C2)CC1` [Example 55, 1-((5′-(4-chlorophenethoxy)-1′,3′-dihydrospiro[azetidine-3,2′-inden]-1-yl)methyl)cyclopropanecarboxylic acid], the figures for the EC50 (in assay [1]; at S1P4; in assay [2]) were 1 to 10 µM, less than 1 µM and more than 1 µM, respectively.

For the compound `O=C(O)CN1CC2(Cc3ccc(OC4CCc5cc(Br)cc(F)c54)cc3C2)C1` (stereo not drawn) [Example 68, 2-(5′-((5-bromo-7-fluoro-2,3-dihydro-1H-inden-1-yl)oxy)-1′,3′-dihydrospiro[azetidine-3,2′-inden]-1-yl)acetic acid], the results for the EC50 (in assay [1]; at S1P4; in assay [2]) were not above 0.01 µM, less than 1 µM and more than 1 µM, respectively.

For the compound `COc1cccc(Cl)c1COc1ccc2c(c1)CC1(C2)CN(CC2(C(=O)O)CC2)C1` [Example 31, 1-((5′-((2-chloro-6-methoxybenzyl)oxy)-1′,3′-dihydrospiro[azetidine-3,2′-inden]-1-yl)methyl)cyclopropanecarboxylic acid compound with 2,2,2-trifluoroacetic acid (1:1)], the EC50 in assay [1] is 0.1 to 1 µM; at S1P4, less than 1 µM; in assay [2] it was more than 1 µM.

Regarding `CC1CCC(C#Cc2ccc3c(c2)CC2(C3)CN(C3CC(C(=O)O)C3)C2)CC1` (stereo not drawn) [Example 102, 3-(5′-((4-methylcyclohexyl)ethynyl)-1′,3′-dihydrospiro[azetidine-3,2′-inden]-1-yl)cyclobutanecarboxylic acid], the EC50 in assay [1] was not above 0.01 µM; on S1P4, less than 1 µM; in assay [2], more than 1 µM.

Regarding `O=C(O)C1CC(N2CC3(Cc4ccc(OCC5CCCOC5)cc4C3)C2)C1` (stereo not drawn) [Example 5, 3-(5′-((tetrahydro-2H-pyran-3-yl)methoxy)-1′,3′-dihydrospiro[azetidine-3,2′-inden]-1-yl)cyclobutanecarboxylic acid], the values for the EC50 (in assay [1]; at S1P4; in assay [2]) were 1 to 10 µM, more than 1 µM and more than 1 µM, respectively.

For the compound `O=C(O)CN1CC2(Cc3ccc(OCCOc4ccc(Cl)cc4)cc3C2)C1` [Example 71, 2-(5′-(2-(4-chlorophenoxy)ethoxy)-1′,3′-dihydrospiro[azetidine-3,2′-inden]-1-yl)acetic acid], the EC50 in assay [1] is 1 to 10 µM; on S1P4, more than 1 µM; in assay [2] it was more than 1 µM.

As to `CCOc1ccc(COc2ccc3c(c2)CC2(C3)CN(CC3(C(=O)O)CC3)C2)c(Cl)c1` [Example 32, 1-((5′-((2-chloro-4-ethoxybenzyl)oxy)-1′,3′-dihydrospiro[azetidine-3,2′-inden]-1-yl)methyl)cyclopropanecarboxylic acid], the EC50 in assay [1] was 1 to 10 µM; at S1P4, less than 1 µM; in assay [2], more than 1 µM.

In the case of `CCOc1ccc(C#Cc2ccc3c(c2)CC2(C3)CN(C3CC(C(=O)O)C3)C2)cc1F` (stereo not drawn) [Example 100, 3-(5′-((4-ethoxy-3-fluorophenyl)ethynyl)-1′,3′-dihydrospiro[azetidine-3,2′-inden]-1-yl)cyclobutanecarboxylic acid], the EC50 in assay [1] was not above 0.01 µM; at S1P4, more than 1 µM; in assay [2] it was less than 1 µM.
